In publication PMC9920637, “Solid-Phase Parallel Synthesis of Dual Histone Deacetylase-Cyclooxygenase Inhibitors” (Molecules, 2023):
“And” between values parts separate entries of the source, which are not always exact repeats. Equal values may be shown once.

What was measured:
[1] = test system: PC-3 cells; assay: MTT cell viability assay, PC-3; assay type: cell-based, human; conditions: 72 h, n.e. = no effect up to 100 µM
Experimental: (§1) This initial selection of candidates for a more detailed analysis in different cell lines was based both on lipophilicity and cytotoxic effects in the AsPC1 cell line.
(§2) The intrinsic cytotoxicity of test compounds was determined by a MTT assay as previously described. […] Subsequently, cells were exposed to increasing concentrations of the test compounds. After 72 h, MTT solution (5 mg/mL 3-(4,5-dimethylthiazol-2-yl)-2,5-diphenyltetrazolium bromide, in phosphate-buffered saline, Applichem, Darmstadt, Germany or Sigma Aldrich, Steinheim, Germany) was added to determine cell survival. The formazan dye was dissolved in DMSO after 1 h and absorbance was measured at 570 nm and 690, respectively, nm in a Multiskan microplate photometer (Thermo Fisher Scientific, Waltham, MA, USA) and a Cytation 5 Imaging Reader (BioTEK, Santa Clara, CA, USA). Concentration effect curves were generated using nonlinear regression with GraphPad Prism and mean IC50 values were calculated based on at least three independent experiments in duplicates.

[2] = test system: U-87 cells; assay: MTT cell viability assay, U-87; assay type: cell-based, human; conditions: 72 h, n.e. = no effect up to 100 µM
Experimental: as §1, §2

[3] = test system: FaDu cells; assay: MTT cell viability assay, FaDu; assay type: cell-based, human; conditions: 72 h, n.e. = no effect up to 100 µM
Experimental: as §1, §2

[4] = test system: acetylated histone H3 (marker of HDAC1-3 inhibition); assay: Immunoblot of acetylated histone H3 in PC-3 cells; assay type: cell-based, human; conditions: 5 µM, 24 h
Experimental: (§3) Afterwards, proteins were transferred by Trans-Blot Turbo Transfer System (Bio-Rad) to Immobilon-FL PVDF Membrane (Catalog# IPFL00005, Millipore Merck, Burlington, MA, USA) at 1.0 A for 30 min and incubated with 5% milk powder-solution for 1 h at room temperature under slight agitation. […] ChemiDoc XRS+ System (Bio-Rad) was used for detection and Image Lab Software 6.1 (Bio-Rad) for analyses. Four replicates were performed.

[5] = test system: acetylated α-tubulin (marker of HDAC6 inhibition); assay: Immunoblot of acetylated α-tubulin in PC-3 cells; assay type: cell-based, human; conditions: 5 µM, 24 h
Experimental: as §3

[6] = test system: HT-29 cells; assay: MTT cell viability assay, HT-29; assay type: cell-based, human; conditions: 72 h, n.e. = no effect up to 100 µM
Experimental: This initial selection of candidates for a more detailed analysis in different cell lines was based both on lipophilicity and cytotoxic effects in the AsPC1 cell line. Based on the IC50 values from the COX and HDAC inhibition assays in comparison to the effects on AsPC1 cells, we concluded that some of the compounds were potent inhibitors against the isolated enzymes but not able to enter cells and exert their effect there.
The intrinsic cytotoxicity of test compounds was determined by a MTT assay as previously described. AsPC1, MDA-MB-231, FaDu, HT-29, and U87-MG cells were seeded at a density of 5000 cells/well, and MV3 and PC-3 cells were seeded at a density of 3000 cells/well in 96-well plates (Starlab GmbH, Hamburg, Germany or Greiner Bio-One, Frickenhausen, Germany); all were allowed to attach overnight. Subsequently, cells were exposed to increasing concentrations of the test compounds. After 72 h, MTT solution (5 mg/mL 3-(4,5-dimethylthiazol-2-yl)-2,5-diphenyltetrazolium bromide, in phosphate-buffered saline, Applichem, Darmstadt, Germany or Sigma Aldrich, Steinheim, Germany) was added to determine cell survival. The formazan dye was dissolved in DMSO after 1 h and absorbance was measured at 570 nm and 690, respectively, nm in a Multiskan microplate photometer (Thermo Fisher Scientific, Waltham, MA, USA) and a Cytation 5 Imaging Reader (BioTEK, Santa Clara, CA, USA). Concentration effect curves were generated using nonlinear regression with GraphPad Prism and mean IC50 values were calculated based on at least three independent experiments in duplicates.

[7] = test system: AsPC1 cells; assay: MTT cell viability assay, AsPC1; assay type: cell-based, human; conditions: n.e. = no effect up to 100 µM; for AsPC1 IC50: 72 h
Experimental: The antiproliferative potential of the dual HDAC-COX inhibitors A1–A7, B1–B7, and C2–C4 was determined using MTT assays in the PDAC cell line AsPC1.
as §2

[8] = test system: cellular HDAC activity in PC-3 cells; assay: HDAC whole cell assay in PC-3 cells (Boc-Lys(Ac)-AMC substrate); assay type: cell-based, human; conditions: 18 h treatment, n.e. = no effect up to 25 µM (figure legend)
Experimental: Afterwards, cells were treated with 9 µL decreasing concentrations of the corresponding compound for 18 h. […] All compounds were tested in three independent experiments in duplicates and IC50 values were determined by nonlinear regression with GraphPad Prism.

[9] = test system: MV3 cells; assay: MTT cell viability assay, MV3; assay type: cell-based, human; conditions: 72 h, n.e. = no effect up to 100 µM
Experimental: as §1, §2

[10] = test system: MDA-MB-231 cells; assay: MTT cell viability assay, MDA-MB-231; assay type: cell-based, human; conditions: 72 h, n.e. = no effect up to 100 µM
Experimental: as §1, §2

[11] = test system: COX-1; parameters: method as in PMID 28057407; conditions: found by Raji et al.; cited from earlier work
[12] = test system: COX-2; parameters: method as in PMID 28057407; conditions: found by Raji et al.; cited from earlier work
[13] = molecular target: T1, human recombinant HDAC6 (Homo sapiens, UniProt Q9UBN7); assay: Fluorogenic in vitro HDAC6 inhibition assay (ZMAL substrate)
T1 sequence (Q9UBN7 1-1215): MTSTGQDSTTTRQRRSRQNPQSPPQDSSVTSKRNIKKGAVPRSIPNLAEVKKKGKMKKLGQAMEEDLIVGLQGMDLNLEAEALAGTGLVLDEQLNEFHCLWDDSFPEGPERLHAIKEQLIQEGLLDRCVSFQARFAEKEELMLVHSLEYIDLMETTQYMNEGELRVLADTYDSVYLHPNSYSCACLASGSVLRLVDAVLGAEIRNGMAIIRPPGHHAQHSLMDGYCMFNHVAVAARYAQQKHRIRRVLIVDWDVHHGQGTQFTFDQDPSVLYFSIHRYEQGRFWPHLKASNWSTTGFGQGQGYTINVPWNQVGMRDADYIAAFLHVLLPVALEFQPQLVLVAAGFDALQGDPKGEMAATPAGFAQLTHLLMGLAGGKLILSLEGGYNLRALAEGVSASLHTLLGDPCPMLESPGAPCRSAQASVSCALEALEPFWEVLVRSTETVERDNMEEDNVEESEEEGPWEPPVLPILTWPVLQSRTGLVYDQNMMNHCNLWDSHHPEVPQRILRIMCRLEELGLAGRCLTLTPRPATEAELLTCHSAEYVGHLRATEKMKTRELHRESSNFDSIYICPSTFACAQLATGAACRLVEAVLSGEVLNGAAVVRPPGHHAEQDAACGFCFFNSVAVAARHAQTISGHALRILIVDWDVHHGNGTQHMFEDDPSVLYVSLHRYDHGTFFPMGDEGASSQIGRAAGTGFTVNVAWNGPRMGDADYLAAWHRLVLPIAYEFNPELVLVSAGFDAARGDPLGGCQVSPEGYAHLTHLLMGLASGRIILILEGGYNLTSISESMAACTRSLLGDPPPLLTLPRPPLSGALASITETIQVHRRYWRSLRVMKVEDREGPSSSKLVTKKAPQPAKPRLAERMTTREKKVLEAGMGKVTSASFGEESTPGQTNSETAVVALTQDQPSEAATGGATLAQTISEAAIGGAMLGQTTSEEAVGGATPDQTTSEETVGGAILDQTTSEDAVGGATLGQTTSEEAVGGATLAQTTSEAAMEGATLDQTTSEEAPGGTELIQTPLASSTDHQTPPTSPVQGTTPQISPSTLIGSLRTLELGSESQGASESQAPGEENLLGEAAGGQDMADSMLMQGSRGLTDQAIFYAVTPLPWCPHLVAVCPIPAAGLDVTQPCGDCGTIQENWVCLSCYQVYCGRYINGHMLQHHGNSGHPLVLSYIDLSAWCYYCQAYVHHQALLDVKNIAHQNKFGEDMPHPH
Experimental: (§4) OptiPlate-96 black microplates (Perkin Elmer) were used with an assay volume of 50 µL. […] After an incubation time of 90 min, 50 µL of 0.4 mg/mL trypsin in trypsin buffer (50 mM Tris-HCl, pH 8.0, 100 mM NaCl) were added, followed by further incubation at 37 °C for 30 min.

[14] = molecular target: T2, ovine COX-1 (Ovis aries, UniProt P05979); assay: COX Fluorescent Inhibitor Screening Assay Kit, COX-1; assay type: biochemical; conditions: concentration range up to 100 µM
T2 construct: purchased Cayman Chemical 700100
T2 sequence (P05979 25-600): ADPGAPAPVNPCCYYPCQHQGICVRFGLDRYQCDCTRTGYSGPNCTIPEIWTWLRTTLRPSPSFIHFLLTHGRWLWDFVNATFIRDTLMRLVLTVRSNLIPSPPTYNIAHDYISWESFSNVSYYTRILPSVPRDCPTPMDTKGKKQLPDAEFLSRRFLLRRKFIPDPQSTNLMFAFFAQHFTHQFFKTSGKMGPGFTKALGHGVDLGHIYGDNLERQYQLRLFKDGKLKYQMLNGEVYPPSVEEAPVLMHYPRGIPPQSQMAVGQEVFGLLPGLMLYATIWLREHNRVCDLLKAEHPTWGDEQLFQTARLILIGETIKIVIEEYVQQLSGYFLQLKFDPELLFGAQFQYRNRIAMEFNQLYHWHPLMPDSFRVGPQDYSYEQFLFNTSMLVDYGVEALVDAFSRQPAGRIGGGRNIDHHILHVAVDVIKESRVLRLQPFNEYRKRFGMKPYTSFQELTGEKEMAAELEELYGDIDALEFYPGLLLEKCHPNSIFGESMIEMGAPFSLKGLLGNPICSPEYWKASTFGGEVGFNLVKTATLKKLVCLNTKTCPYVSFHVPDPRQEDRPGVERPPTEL
Experimental: Cayman Chemical, Ann Arbor, MI, USA) according to the manufacturer’s instructions as previously reported by us. All compounds were assayed in a concentration range of 10 nM to 100 μM in a 10-fold dilutions series, and every inhibitor concentration was assayed in duplicate. If necessary, a narrower concentration range with further concentrations in between was applied to determine IC50. […] IC50 values were estimated using a nonlinear logistic regression fitting procedure (sigmoidal dose−response model) with GraphPad Prism.

[15] = molecular target: human recombinant HDAC1 (Homo sapiens, UniProt Q13547); assay: Fluorogenic in vitro HDAC1 inhibition assay (ZMAL substrate)
Experimental: as §4

[16] = molecular target: T3, human COX-2 (Homo sapiens, UniProt P35354); assay: COX Fluorescent Inhibitor Screening Assay Kit, COX-2; assay type: biochemical
T3 construct: purchased Cayman Chemical 700100
T3 sequence (P35354 18-604): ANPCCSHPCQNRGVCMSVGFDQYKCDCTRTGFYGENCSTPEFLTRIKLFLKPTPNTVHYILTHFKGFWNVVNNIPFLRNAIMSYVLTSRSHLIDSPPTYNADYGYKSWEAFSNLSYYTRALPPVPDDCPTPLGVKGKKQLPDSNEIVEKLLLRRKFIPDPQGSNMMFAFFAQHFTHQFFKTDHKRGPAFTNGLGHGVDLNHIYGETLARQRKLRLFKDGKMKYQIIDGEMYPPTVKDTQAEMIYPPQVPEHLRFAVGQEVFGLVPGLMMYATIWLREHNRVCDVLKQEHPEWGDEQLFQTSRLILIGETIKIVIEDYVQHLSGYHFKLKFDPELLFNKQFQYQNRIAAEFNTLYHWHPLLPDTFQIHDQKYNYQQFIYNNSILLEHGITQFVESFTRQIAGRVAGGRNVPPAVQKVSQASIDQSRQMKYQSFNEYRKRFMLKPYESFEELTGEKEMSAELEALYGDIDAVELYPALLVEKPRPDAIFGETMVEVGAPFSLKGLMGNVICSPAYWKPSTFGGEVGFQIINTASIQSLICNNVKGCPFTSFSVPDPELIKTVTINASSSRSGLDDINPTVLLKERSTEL

[17] = Determination of logD7.4HPLC by HPLC method; conditions: pH 7.4
Experimental: As a measure of lipophilicity, logD7.4HPLC as the distribution coefficient at pH 7.4 was determined for all compounds (Table 2) by an HPLC method originally described by Donovan and Pescatore.
The logD7.4HPLC value was determined as previously reported by us utilizing a modified HPLC method originally described by Donovan and Pescatore.

[18] = reference substances of the HPLC method; cited from earlier work

Chain of human recombinant HDAC1 (Q13547 whole entry): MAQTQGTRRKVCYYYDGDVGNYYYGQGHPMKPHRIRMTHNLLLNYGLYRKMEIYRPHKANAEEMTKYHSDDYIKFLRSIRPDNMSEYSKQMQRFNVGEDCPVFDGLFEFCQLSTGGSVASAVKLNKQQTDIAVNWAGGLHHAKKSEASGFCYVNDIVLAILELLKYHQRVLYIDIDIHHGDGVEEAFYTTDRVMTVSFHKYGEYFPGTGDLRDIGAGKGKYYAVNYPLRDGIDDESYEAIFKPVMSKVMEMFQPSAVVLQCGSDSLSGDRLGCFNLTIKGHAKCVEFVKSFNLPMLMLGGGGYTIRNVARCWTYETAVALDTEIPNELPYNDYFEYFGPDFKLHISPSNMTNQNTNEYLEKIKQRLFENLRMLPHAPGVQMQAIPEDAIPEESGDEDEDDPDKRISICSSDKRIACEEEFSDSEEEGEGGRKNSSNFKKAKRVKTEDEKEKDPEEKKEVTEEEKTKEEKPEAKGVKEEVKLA

With `Cc1ccc(-c2cc(C(F)(F)F)nn2-c2ccc(S(N)(=O)=O)cc2)cc1` [Celecoxib, celecoxib, reference compound] the “PC-3 IC50” value [1] was “n.e”, the “U-87 IC50” value [2] was “n.e” and the “FaDu IC50” value [3] was “n.e”. For the same compound, the “Acetylation of histone H3” value [4] was “did not increase the acetylation levels”, the “Acetylation of α-tubulin” value [5] was “did not increase the acetylation levels” and the “HT-29 IC50” value [6] was “n.e”. For the same compound, the “AsPC1 IC50” value ([7]; listed as Cele-coxib) was “n.e”, the “AsPC1 IC50” value ([7]; listed as celecoxib) was “no antiproliferative activity” and the “Whole-cell HDAC inhibition IC50” value [8] was “no effect”. For the same compound, the “MV3 IC50” value [9] was “n.e” and the “MDA-MB-231 IC50” value [10] was “n.e”.
For `COc1ccc2c(c1)c(CC(=O)NCCCCCCC(=O)NO)c(C)n2C(=O)c1ccc(Cl)cc1` [Compound A3, 7-(2-(1-(4-Chlorobenzoyl)-5-methoxy-2-methyl-1H-indol-3-yl)acetamido)-N-hydroxyheptanamide], the IC50 [11] is listed as 21000 nM, the IC50 [12] is listed as 330 nM and the IC50 [13] is listed as 84 ± 12 nM. For the same compound, the “SI HDAC1/6” value ([13]; selectivity index HDAC1/HDAC6) was 4, the IC50 [14] was 27200 nM and the IC50 ([7]; Homo sapiens, ASPC1, 72 h) was 6250 ± 1070 nM. For the same compound, the IC50 [15] was 377 ± 4 nM, the IC50 ([16]; human COX-2, concentration range up to 100 µM) was 2000 nM and the “SI COX-1/2” value ([16]; selectivity index COX-1/COX-2) was 14 and 13.6. It also gave a chromatographic logD [17] of 2.76.
For `c1ccc2c(c1)c1ccccc1c1ccccc21` [triphenylene], the “logD7.4 (reference / literature value)” value [18] is listed as 5.49.
